Series [1] addresses T1, 3',5'-cyclic-AMP phosphodiesterase 4B (Homo sapiens, UniProt Q07343). In words: Inhibition of recombinant human C-terminal His-tagged N-terminal GST-tagged PDE4B2 expressed in baculovirus infected Sf9 cells at 10 uM by radioligand binding assay relative to control.
For series [2], the target named is T1, 3',5'-cyclic-AMP phosphodiesterase 4B. In words: Inhibition of recombinant human C-terminal His-tagged N-terminal GST-tagged PDE4B2 expressed in baculovirus infected Sf9 cells by radioligand binding assay. It counts as cell-based.
Series [3] in a line: Effect on TNFalpha production in C57BL/6 mouse bone marrow derived Macrophage at 1 to 10 uM incubated for 30 mins by ELISA. The following applies: 0.5 h.
Series [4] is described as follows: Metabolic stability in human liver microsomes assessed as intrinsic clearance. The class given is ADME, Microsome. The following applies: read-out: CLH.
Series [5] can be described thus: Metabolic stability in mouse liver microsomes assessed as intrinsic clearance. The following applies: read-out: CLH. The class given is ADME, Microsome. (In general: Liver microsomes are a subcellular fraction often used to study metabolism.)
Series [6] can be described thus: Protein binding in human plasma assessed as unbound fraction. It counts as ADME, cell-free.
A short description of series [7]: Protein binding in mouse plasma assessed as unbound fraction. It counts as ADME, cell-free.

pIC50: −log10 of the molar value.

T1 sequence (Q07343 whole entry): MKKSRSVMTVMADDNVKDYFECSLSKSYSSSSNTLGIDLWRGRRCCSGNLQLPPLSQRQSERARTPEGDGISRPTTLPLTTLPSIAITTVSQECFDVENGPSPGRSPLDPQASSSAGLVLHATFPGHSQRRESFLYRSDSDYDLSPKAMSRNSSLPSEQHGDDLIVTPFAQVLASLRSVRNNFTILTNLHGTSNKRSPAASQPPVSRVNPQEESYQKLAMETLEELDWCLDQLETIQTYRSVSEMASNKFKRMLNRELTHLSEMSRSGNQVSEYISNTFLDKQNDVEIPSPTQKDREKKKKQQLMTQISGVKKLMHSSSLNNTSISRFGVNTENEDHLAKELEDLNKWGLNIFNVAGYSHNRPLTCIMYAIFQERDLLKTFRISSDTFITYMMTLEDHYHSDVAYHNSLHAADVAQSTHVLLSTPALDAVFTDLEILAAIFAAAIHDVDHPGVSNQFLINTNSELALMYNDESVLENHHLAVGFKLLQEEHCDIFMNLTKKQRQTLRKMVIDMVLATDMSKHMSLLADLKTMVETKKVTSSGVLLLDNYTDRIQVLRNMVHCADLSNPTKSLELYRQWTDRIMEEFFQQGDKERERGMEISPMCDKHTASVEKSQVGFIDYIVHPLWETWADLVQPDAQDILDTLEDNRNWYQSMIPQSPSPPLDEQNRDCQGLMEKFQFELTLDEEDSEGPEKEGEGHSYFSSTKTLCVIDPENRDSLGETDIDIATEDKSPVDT

In general, inhibition refers to the percentage by which the read-out fell short of the control. Take `O=C(c1cc2ccccc2n1-c1ccc(Cl)c(Cl)c1)N1CC(F)C1`: the inhibition in series [1] was 58%.
Same read-out and setting: then `Cc1ccc(-c2c(C(=O)NC3CC3)sc3nccnc23)cc1Cl`, with 46%; and `COc1c(F)cc(-n2c(C(=O)N3CC(F)(F)C3)cc3cccnc32)cc1F`, with 35%.
Same read-out and setting: then `COc1ccc(-n2c(C(=O)N3CC(F)C3)cc3cccnc32)cc1`, with 67%; and `N#Cc1c(F)cc(-n2c(C(=O)NC3CC(F)(F)C3)cc3cccnc32)cc1F`, with 47%.
Broadly, the pIC50 is −log10 of the IC50, conventionally taken in molar units. Take `Cc1ccc(-n2c(C(=O)NC3CC(F)C3)cc3cccnc32)cc1Cl` (stereo not drawn): the pIC50 in series [2] was 5.03. Besides, the Activity entry in series [3] is “Non-Toxic”.
Broadly, the fraction unbound is the share of the substance not bound to proteins or other matrix. On to `COc1ncc(-n2c(C(=O)N3CC(F)C3)cc3cccnc32)cc1Cl`, for which the Activity result in series [3] was “Non-Toxic”. Moreover, the CLint scaled in series [4] was less than 23.1 mL/min/kg; in series [5], 134 mL/min/kg. Further, the free fraction (fraction unbound) in series [6] is 0.049; in series [7], 0.066.
On to `O=C(NC1CC1)c1cc2cccnc2n1-c1ccc(Cl)c(Cl)c1`, for which the CLint scaled is 179 mL/min/kg in series [4] and 157 mL/min/kg in series [5]. For the same compound, the values for the unbound share (fraction unbound) in series [6] and in series [7] were 0.026 and 0.006, respectively.
With `O=C(c1cc2cccnc2n1-c1ccnc(F)c1)N1CC(F)(F)C1`, the inhibition in series [1] was 37%.
Regarding `Cc1ccc(-n2c(C(=O)NC3CC3)cc3cccnc32)cc1Cl`, the values for the CLint scaled in series [4] and in series [5] were 172 mL/min/kg and 551 mL/min/kg, respectively. For the same compound, the free fraction (fraction unbound) in series [6] stood at 0.011; in series [7] it was 0.006.
For `O=C(c1cc2cccnc2n1-c1ccnc(F)c1)N1CC(F)C1`, in that order: less than 23.1 mL/min/kg, less than 49.5 mL/min/kg, 0.474 and 0.393.
Regarding `O=C(c1cc2cccnc2n1-c1cc(F)c(Cl)c(F)c1)N1CC(F)(F)C1`, in series [1], the inhibition was 48%. Further, in series [3], the Activity entry is reported as “Non-Toxic”. The results for the CLint scaled in series [4] and in series [5] were 33.3 mL/min/kg and 104 mL/min/kg, respectively. The fraction unbound in series [6] was found to be 0.113; in series [7], 0.051.
On to `O=C(c1cc2cccnc2n1-c1ccc(Cl)cc1)N1CC(F)(F)C1`, for which the inhibition in series [1] came to 47%.
In the case of `COc1ccc(C2CNC(=O)C2)cc1OC1CCCC1` (stereo not drawn) [ROLIPRAM], the Activity entry in series [3] is listed as “Non-Toxic”.
For `COc1c(F)cc(-n2c(C(=O)N3CC(F)C3)cc3cccnc32)cc1F`, the Activity entry in series [3] is “Non-Toxic”. Moreover, the CLint scaled in series [4] was less than 23.1 mL/min/kg; in series [5], less than 49.5 mL/min/kg. In addition, the figures for the fraction unbound in series [6] and in series [7] were 0.302 and 0.133, respectively.
For the compound `Cc1ccc(-c2c(C(=O)NC3CC3)n(C)c3cccnc23)cc1Cl`, the inhibition in series [1] was found to be 56%.
Same read-out and setting: then `COc1ccc(-n2c(C(=O)N3CC(F)C3)cc3cccnc32)cc1F`, with 77%.
Turning to `Cc1ccc(-n2c(C(=O)NC3CC3)nc3cccnc32)cc1Cl`, the values for the CLint scaled in series [4] and in series [5] were 29.6 mL/min/kg and 150 mL/min/kg, respectively. Also, the fraction unbound is 0.085 in series [6] and 0.056 in series [7].
In the case of `O=C(c1cc2cccnc2n1-c1ccc(Cl)c(F)c1)N1CC(F)C1`, the Activity result in series [3] is listed as “Non-Toxic”.
In the case of `O=C(NC1CC1)c1nn2ccccc2c1-c1ccc(Cl)c(Cl)c1`, the negative logarithm of the IC50 (pIC50) in series [2] was 5.38.
On to `O=C(c1cc2cccnc2n1Cc1ccc(Cl)c(Cl)c1)N1CC(F)C1`, for which, in series [1], the inhibition was determined as 72%.
For the compound `O=C(c1nc2ccccc2n1-c1ccc(Cl)c(Cl)c1)N1CC(F)C1`, the pIC50 in series [2] was 5.62.
Take `O=C(c1cc2cccnc2n1-c1ccc(Cl)c(F)c1)N1CC(F)(F)C1`: the inhibition in series [1] turned out to be 48%.
Regarding `N#Cc1c(F)cc(-n2c(C(=O)NC3CC3)cc3cccnc32)cc1F`, the CLint scaled in series [4] was 31.5 mL/min/kg; in series [5] it was less than 49.5 mL/min/kg. Besides, the fraction unbound is 0.235 in series [6] and 0.096 in series [7].
As to `N#Cc1c(F)cc(-n2c(C(=O)N3CC(F)(F)C3)cc3cccnc32)cc1F`, the inhibition in series [1] was 41%.
Still for that read-out and setting: for `N#Cc1c(F)cc(-n2c(C(=O)NC3CC(F)C3)cc3cccnc32)cc1F` (stereo not drawn) the value was 58%; for `Cc1ccc(-n2c(C(=O)N3CC(F)(F)C3)cc3cccnc32)cc1Cl`, 47%; for `O=C(NCc1ccco1)c1cc2cccnc2n1-c1ccc(Cl)c(Cl)c1`, 70%.
The same measure, in the same setting: then `O=C(NC1CC(F)(F)C1)c1cc2cccnc2n1-c1ccc(Cl)c(Cl)c1`, with 23%.
